# Results as given in ChEMBL document CHEMBL4382257, “Identification and Profiling of Hydantoins-A Novel Class of Potent Antimycobacterial DprE1 Inhibitors” (J Med Chem, 2018).
# Test: physchem
# Details: buffer, pH 7.4, logD
row,Compound,chromatographic logD
1,CC1(c2ccc(OC(F)F)cc2)NC(=O)N(CC(=O)c2ccc3c(c2)OCO3)C1=O (stereo unspecified),4.9
2,COc1ccc(-c2cn(CC(=O)c3ccc(F)cc3F)cn2)cc1,4.68
3,CC1(c2ccc(OC(F)(F)F)cc2)NC(=O)N(CC(=O)c2ccc(F)cc2F)C1=O (stereo unspecified),6.05
4,CCOc1ccc(C2(C)NC(=O)N(CC(=O)c3ccc(F)cc3F)C2=O)cc1 (stereo unspecified),5.43
5,COc1ccc(C2(C)NC(=O)N(CC(=O)c3ccc(F)cc3F)C2=O)c(F)c1 (stereo unspecified),5.05
6,CC1(c2ccc(OC(F)F)cc2)NC(=O)N(CC(=O)c2ccc(Cl)s2)C1=O (stereo unspecified),5.49
7,CCC1(c2ccc(C#N)cc2)NC(=O)N(CC(=O)c2ccc(F)cc2F)C1=O (stereo unspecified),4.99
8,CC1(c2ccc(OC(F)F)cc2)NC(=O)N(CC(=O)c2cccs2)C1=O (stereo unspecified),4.59
9,COc1cc(C2(C)NC(=O)N(CC(=O)c3ccc(F)cc3F)C2=O)cc(OC)c1OC (stereo unspecified),4.47
10,COc1ccc(C2(C)NC(=O)N(CCC(=O)c3ccc(F)cc3)C2=O)cc1 (stereo unspecified),4.6
11,Cc1ccc(C(=O)CN2C(=O)NC(C)(c3ccc(OC(F)F)cc3)C2=O)s1 (stereo unspecified),5.06
12,CC1(c2ccc(N)cc2)NC(=O)N(CC(=O)c2ccc(F)cc2F)C1=O (stereo unspecified),3.38
13,CC1(c2ccc(Cl)cc2)NC(=O)N(CC(=O)c2ccc(F)cc2)C1=O (stereo unspecified),5.28
14,COc1ccc(C(=O)CN2C(=O)NC(C)(c3ccc(OC(F)F)cc3)C2=O)cc1F (stereo unspecified),5.03
15,CC1(c2ccc(C#N)cc2)NC(=O)N(CC(=O)C2CCCCC2)C1=O (stereo unspecified),5.07
16,CC1(c2ccc(OC(F)F)cc2)NC(=O)N(CC(=O)c2nccs2)C1=O (stereo unspecified),4.45
17,Cc1cc(C(=O)CN2C(=O)NC(C)(c3ccc(OC(F)F)cc3)C2=O)c(C)[nH]1 (stereo unspecified),4.12
18,CC1(c2ccc(OC(F)F)cc2)NC(=O)N(CC(=O)c2ccccc2)C1=O (stereo unspecified),4.97
19,CC1(c2ccc(OC(F)F)cc2)NC(=O)N(CC(=O)N2CCCC2)C1=O (stereo unspecified),3.37
20,CC1(c2ccc(C#N)cc2)NC(=O)N(CC2(c3ccc(F)cc3F)COC2)C1=O (stereo unspecified),4.21
21,CC1(c2ccc(Br)nc2)NC(=O)N(CC(=O)c2ccc(F)cc2F)C1=O (stereo unspecified),4.67
22,CC1(c2ccc(C(F)(F)F)cc2)NC(=O)N(CC(=O)c2ccc(F)cc2F)C1=O (stereo unspecified),6.01
23,COc1ccccc1C(=O)CN1C(=O)NC(C)(c2ccc(C#N)cc2)C1=O (stereo unspecified),4.45
24,CC1(c2ccc(OC(F)F)cc2)NC(=O)N(CC(=O)c2cccc(F)c2)C1=O (stereo unspecified),5.13

row,Compound,chromatographic logD
1,Cc1ccc(C)c(C(=O)CN2C(=O)NC(C)(c3ccc(OC(F)F)cc3)C2=O)c1 (stereo unspecified),5.97
2,CC1(c2ccc(OC(F)F)cc2)NC(=O)N(CC(=O)c2ccccn2)C1=O (stereo unspecified),4.35
3,CC1(c2ccc(OC(F)F)cc2)NC(=O)N(CC(=O)c2ccncc2)C1=O (stereo unspecified),3.52
4,COc1ccc(C2(C)NC(=O)N(CC(=O)c3ccc(F)cc3)C2=O)cc1 (stereo unspecified),4.53
5,CC1(c2ccc(C#N)cc2)NC(=O)N(CC(=O)c2ncc(F)cc2F)C1=O (stereo unspecified),3.89
6,CC1(c2ccc(Cl)cc2)NC(=O)N(CCC(=O)c2ccc(F)cc2)C1=O (stereo unspecified),5.35
7,CC1(c2ccc(-n3ccnc3)cc2)NC(=O)N(CC(=O)c2ccc(F)cc2F)C1=O (stereo unspecified),3.84
8,COc1ccc(C2(C)NC(=O)N(Cc3ccc(F)cc3)C2=O)cc1 (stereo unspecified),4.72
9,CC1(c2ccc(Br)cc2F)NC(=O)N(CC(=O)c2ccc(F)cc2F)C1=O (stereo unspecified),5.8
10,CC1(c2ccc(C#N)s2)NC(=O)N(CC(=O)c2ccc(F)cc2F)C1=O (stereo unspecified),4.67
11,CC1(c2ccc(Cl)cc2)NC(=O)N(CC(=O)c2ccc(F)cc2F)C1=O (stereo unspecified),5.54
12,CC1(c2ccc(C#N)cc2)NC(=O)N(CCc2ccc(F)cc2)C1=O (stereo unspecified),4.56
13,COc1ccc(C2(C)NC(=O)N(CC(O)c3ccc(F)cc3F)C2=O)cc1 (stereo unspecified),3.96
14,COc1ccc(C2(C)NC(=O)N(CCc3ccc(F)cc3)C2=O)cc1 (stereo unspecified),4.84
15,CC1(c2ccc(C#N)cc2)NC(=O)N(CC(=O)c2ccc(F)cc2F)C1=O (stereo unspecified),4.54
16,O=C(CN1C(=O)NC2(CCc3cc(Br)ccc32)C1=O)c1ccc(F)cc1F (stereo unspecified),5.71
17,CC1(c2cccc(Br)c2)NC(=O)N(CC(=O)c2ccc(F)cc2F)C1=O (stereo unspecified),5.72
18,CC1(c2ccc(C#N)cc2)NC(=O)N(CC(=O)C23CC4CC(CC(C4)C2)C3)C1=O (stereo unspecified),6.31
19,CC1(c2ccc(C#N)cc2)NC(=O)N(CC(=O)c2cccc(C(F)(F)F)c2)C1=O (stereo unspecified),5.3
20,COc1ccc(F)cc1C(=O)CN1C(=O)NC(C)(c2ccc(OC(F)F)cc2)C1=O (stereo unspecified),5.42
21,CCCC1(c2ccc(Br)cc2)NC(=O)N(CC(=O)c2ccc(F)cc2F)C1=O (stereo unspecified),6.64
22,CC(C)C1(c2ccc(Br)cc2)NC(=O)N(CC(=O)c2ccc(F)cc2F)C1=O (stereo unspecified),6.57
23,CC1(c2ccc(Br)cn2)NC(=O)N(CC(=O)c2ccc(F)cc2F)C1=O (stereo unspecified),4.87
24,CC1(c2ccc(C#N)cc2)NC(=O)N(Cc2ccc(F)cc2)C1=O (stereo unspecified),4.5

row,Compound,chromatographic logD
1,CC1(c2ccc(Br)cc2)CC(=O)N(CC(=O)c2ccc(F)cc2F)C1=O (stereo unspecified),6.86
2,COc1cccc(C(=O)CN2C(=O)NC(C)(c3ccc(C#N)cc3)C2=O)c1 (stereo unspecified),4.39
3,COc1cccc(C2(C)NC(=O)N(CC(=O)c3ccc(F)cc3F)C2=O)c1 (stereo unspecified),4.96
4,CC1(c2ccncc2)NC(=O)N(CC(=O)c2ccc(F)cc2F)C1=O (stereo unspecified),3.04
5,COc1ccc(C2(C)NC(=O)N(CC(=O)c3ccc(F)cc3F)C2=O)cc1F (stereo unspecified),4.84
6,CC1(c2ccc(C#N)cc2)NC(=O)N(CC(=O)c2nccs2)C1=O (stereo unspecified),3.42
7,CC1(c2ccc(OC(F)F)cc2)NC(=O)N(CC(=O)c2ccc(F)cc2F)C1=O (stereo unspecified),5.36
8,CN1C(=O)N(CC(=O)c2ccc(F)cc2F)C(=O)C1(C)c1ccc(C#N)cc1 (stereo unspecified),5.22
9,CC1(c2ccc(Cl)cc2)NC(=O)N(C(=O)c2ccc(F)cc2F)C1=O (stereo unspecified),3.72
10,CC1(c2ccc(C#N)cc2)NC(=O)N(CCC(=O)c2ccc(F)cc2)C1=O (stereo unspecified),4.4
11,C[C@@]1(c2ccc(C#N)cc2)NC(=O)N(CC(=O)c2ccc(F)cc2F)C1=O,4.51
12,N#Cc1ccc(-c2cn(CC(=O)c3ccc(F)cc3F)cn2)cc1,4.58
13,CC1(c2ccc(OC(F)F)cc2)NC(=O)N(CC(=O)N2CCCCC2)C1=O (stereo unspecified),4.03
14,COc1ccc(C(=O)CN2C(=O)NC(C)(c3ccc(OC(F)F)cc3)C2=O)cc1 (stereo unspecified),4.92
15,CC1(c2ccc(OC(F)F)cc2)NC(=O)N(CC(=O)c2ccccc2F)C1=O (stereo unspecified),5.23
16,CC1(c2ccc(-n3cnnn3)cc2)NC(=O)N(CC(=O)c2ccc(F)cc2F)C1=O (stereo unspecified),3.78
17,CC(=O)N1C(=O)N(CC(=O)c2ccc(F)cc2F)C(=O)C1(C)c1ccc(C#N)cc1 (stereo unspecified),5.77
18,CC1(c2ccc(C#N)cc2)NC(=O)N(CC(=O)c2cccc([N+](=O)[O-])c2)C1=O (stereo unspecified),4.25
19,CC1(c2cccc(NS(C)(=O)=O)c2)NC(=O)N(CC(=O)c2ccc(F)cc2F)C1=O (stereo unspecified),3.67
20,CC1(c2ccc(Cl)cc2)NC(=O)N(Cc2ccc(F)cc2)C1=O (stereo unspecified),5.59
21,N#Cc1ccc(-c2cnn(CC(=O)c3ccc(F)cc3F)c2)cc1,5.17
22,CC1(c2ccc(C#N)cn2)NC(=O)N(CC(=O)c2ccc(F)cc2F)C1=O (stereo unspecified),3.97
23,COc1ccc(C2(C)NC(=O)N(CC(=O)c3ccc(F)cc3F)C2=O)cc1 (stereo unspecified),4.78
24,CC1(c2ccc(N3CCOCC3)cc2)NC(=O)N(CC(=O)c2ccc(F)cc2F)C1=O (stereo unspecified),4.45

row,Compound,chromatographic logD
1,COc1ccc(C(=O)CN2C(=O)NC(C)(c3ccc(C#N)cc3)C2=O)cc1 (stereo unspecified),4.25
2,CC1(c2ccc(OC(F)F)cc2)NC(=O)N(CC(=O)c2ccc[nH]2)C1=O (stereo unspecified),3.91
3,CC1(c2ccc(C#N)cc2)NC(=O)N(CC(=O)c2ccc(F)cc2)C1=O (stereo unspecified),4.26
4,CC(=O)Nc1ccc(C2(C)NC(=O)N(CC(=O)c3ccc(F)cc3F)C2=O)cc1 (stereo unspecified),3.28
5,CC1(c2ccc(Br)cc2)NC(=O)N(CC(=O)c2ccc(F)cc2F)C1=O (stereo unspecified),5.68
6,CC1(c2ccc(Br)cc2)CCN(CC(=O)c2ccc(F)cc2F)C1=O (stereo unspecified),6.74
7,O=C(CN1C(=O)NC(c2ccc(Br)cc2)(C(F)(F)F)C1=O)c1ccc(F)cc1F (stereo unspecified),6.8
8,CC1(c2ccc(C#N)nc2)NC(=O)N(CC(=O)c2ccc(F)cc2F)C1=O (stereo unspecified),3.94
9,CC1(c2ccc(C#N)cc2)NC(=O)N(CC(F)(F)c2ccc(F)cc2F)C1=O (stereo unspecified),5.1
10,COc1cc(C2(C)NC(=O)N(CC(=O)c3ccc(F)cc3F)C2=O)ccc1OC(F)F (stereo unspecified),5.5
11,COc1ccc(C2(C)NC(=O)N(C(=O)c3ccc(F)cc3F)C2=O)cc1 (stereo unspecified),3.43
12,CCC1(c2ccc(Br)cc2)NC(=O)N(CC(=O)c2ccc(F)cc2F)C1=O (stereo unspecified),6.17
13,CC1(c2ccc(C#N)cc2)NC(=O)N(C2Cc3cc(F)cc(F)c3C2=O)C1=O (stereo unspecified),4.33
14,CC1(c2ccc(OC(F)F)cc2)NC(=O)N(CC(=O)c2ccc(F)cc2)C1=O (stereo unspecified),5.08
15,CC1(c2cccc(C#N)c2)NC(=O)N(CC(=O)c2ccc(F)cc2F)C1=O (stereo unspecified),4.51
16,Cc1ccc(C2(C)NC(=O)N(CC(=O)c3ccc(F)cc3F)C2=O)cc1 (stereo unspecified),5.41
17,C[C@]1(c2ccc(C#N)cc2)NC(=O)N(CC(=O)c2ccc(F)cc2F)C1=O,4.51
18,CC1(c2ccc(Cl)cc2)NC(=O)N(CCc2ccc(F)cc2)C1=O (stereo unspecified),5.68
19,CC1(c2ccc(OC(F)F)cc2)NC(=O)N(CC(=O)c2cccnc2)C1=O (stereo unspecified),3.54
20,CC1(c2ccc(C#N)cc2)NC(=O)N(CC(=NO)c2ccc(F)cc2F)C1=O (stereo in doubt; 43b),3.59
21,COc1ccc(C2(C)CN(CC(=O)c3ccc(F)cc3F)C(=O)N2)cc1 (stereo in doubt; 151a),4.72

# Test: Intrinsic clearance in mouse liver microsomes at 0.5 uM after 30 mins in presence of NADPH by LC-MS/MS analysis
# Type: ADME, Microsome
# Details: 0.5 h
row,Compound,CLH [mL/min/g]
1,CC1(c2ccc(C#N)cc2)NC(=O)N(CC(=O)c2ccc(F)cc2F)C1=O (stereo unspecified),3.52
2,CC1(c2ccc(OC(F)F)cc2)NC(=O)N(CC(=O)c2ccc(F)cc2F)C1=O (stereo unspecified),1.78
3,CC1(c2ccc(-n3cnnn3)cc2)NC(=O)N(CC(=O)c2ccc(F)cc2F)C1=O (stereo unspecified),2.44
4,CC1(c2ccc(Br)cc2)NC(=O)N(CC(=O)c2ccc(F)cc2F)C1=O (stereo unspecified),1.48

# Test: Intrinsic clearance in human liver microsomes at 0.5 uM after 30 mins in presence of NADPH by LC-MS/MS analysis
# Type: ADME, Microsome
# Details: 0.5 h
row,Compound,CLH [mL/min/g]
1,CC1(c2ccc(C#N)cc2)NC(=O)N(CC(=O)c2ccc(F)cc2F)C1=O (stereo unspecified),0.49
2,CC1(c2ccc(OC(F)F)cc2)NC(=O)N(CC(=O)c2ccc(F)cc2F)C1=O (stereo unspecified),< 0.4
3,CC1(c2ccc(-n3cnnn3)cc2)NC(=O)N(CC(=O)c2ccc(F)cc2F)C1=O (stereo unspecified),< 0.4
4,CC1(c2ccc(Br)cc2)NC(=O)N(CC(=O)c2ccc(F)cc2F)C1=O (stereo unspecified),< 0.4
